Experimental findings from ChEMBL document CHEMBL4613325, “Design of Development Candidate eFT226, a First in Class Inhibitor of Eukaryotic Initiation Factor 4A RNA Helicase” (J Med Chem, 2020) are described below.

The nature of data set [1]: physchem.
The test system of data set [2] is MDA-MB-231. As to the kind of experiment: Antiproliferative activity against human MDA-MB-231 cells assessed as reduction in cell proliferation incubated for 72 hrs by CellTiter-Glo reagent based assay. It counts as functional. The following applies: MDA-MB-231, 72 h.
Data set [3] in a line: Apparent permeability from apical to basolateral side in human Caco2 cells at 10 uM by LC/MS/MS analysis.
Data set [4] is described as follows: Efflux ratio in human Caco2 cells at 10 uM by LC/MS/MS analysis.
Data set [5] concerns the target Voltage-gated inwardly rectifying potassium channel KCNH2 (Homo sapiens, UniProt Q12809). As to the kind of experiment: Inhibition of human ERG by patch-clamp assay.
Data set [6] can be described thus: Clearance in iv dosed rat. It counts as ADME, organism-based. To be noted: in vivo.
Data set [7] is described as follows: Volume of distribution at steady state in iv dosed rat. It counts as ADME, organism-based. The following applies: in vivo, read-out: Vdss.
A short description of data set [8]: Half life in iv dosed rat. It counts as ADME, organism-based. The following applies: in vivo.
A short description of data set [9]: AUC in iv dosed rat. It counts as ADME, organism-based. The following applies: in vivo.
Data set [10] addresses T1, Eukaryotic initiation factor 4A-I (Homo sapiens, UniProt P60842). As to the kind of experiment: Binding affinity to full length recombinant eIF4A1 (unknown origin) assessed as induction ternary complex formation in presence of AGAGAG by measuring half life for AGAGAG + ATP complex formation SPR assay.
For data set [11], the target named is T1, Eukaryotic initiation factor 4A-I. As to the kind of experiment: Binding affinity to full length recombinant eIF4A1 (unknown origin) assessed as induction ternary complex formation in presence of AGAGAG by measuring half life for AGAGAG + AMP-PNP complex formation SPR assay.
Data set [12] shares this target. As to the kind of experiment: Binding affinity to full length recombinant eIF4A1 (unknown origin) assessed as induction ternary complex formation in presence of DNA oligo sequences by measuring Kd for DNA oligo sequences + ATP complex formation SPR assay.
For data set [13] the target is unchanged. In words: Inhibition of eIF4A1 in human MDA-MB-231 cells assessed as inhibition of cellular-translation incubated for 4 hrs by specific tandem sequence motif repeat AGAGAG in 5'- UTR containing luciferase reporter gene assay. It counts as cell-based.
For data set [14] the target is unchanged. In words: Inhibition of eIF4A1 in human MDA-MB-231 cells assessed as inhibition of cellular-translation incubated for 4 hrs by specific tandem sequence motif repeat GGCGGC in 5'- UTR containing luciferase reporter gene assay. It counts as cell-based.
Data set [15] has the same target. As to the kind of experiment: Inhibition of eIF4A1 in human MDA-MB-231 cells assessed as inhibition of cellular-translation incubated for 4 hrs by specific tandem sequence motif repeat CCGCCG in 5'- UTR containing luciferase reporter gene assay. It counts as cell-based.
For data set [16] the target is unchanged. As to the kind of experiment: Inhibition of eIF4A1 in human MDA-MB-231 cells assessed as inhibition of cellular-translation incubated for 4 hrs by specific tandem sequence motif repeat CAACAA in 5'- UTR containing luciferase reporter gene assay. It counts as cell-based.
Data set [17] shares this target. In words: Inhibition of eIF4A1 in human HAP1 cells assessed as reduction in c-MYC protein expression at 5 to 50 nM incubated for 24 hrs by Western blot analysis. It counts as cell-based.
For data set [18] the target is unchanged. As to the kind of experiment: Inhibition of eIF4A1 in human HAP1 cells assessed as reduction in MCL-1 protein expression at 5 to 50 nM incubated for 24 hrs by Western blot analysis. It counts as cell-based.
Data set [19] shares this target. In words: Inhibition of eIF4A1 in human HAP1 cells assessed as reduction in Cyclin D1 protein expression at 5 to 50 nM incubated for 24 hrs by Western blot analysis. It counts as cell-based.
In data set [20] the test system is HAP1. In words: Inhibition of eIF4A1 F163L mutant in human HAP1 cells assessed as reduction in c-MYC protein expression at 5 to 50 nM incubated for 24 hrs by Western blot analysis. It counts as cell-based.
In data set [21] the test system is HAP1. As to the kind of experiment: Inhibition of eIF4A1 F163L mutant in human HAP1 cells assessed as reduction in MCL-1 protein expression at 5 to 50 nM incubated for 24 hrs by Western blot analysis. It counts as cell-based.
In data set [22] the test system is HAP1. In words: Inhibition of eIF4A1 F163L mutant in human HAP1 cells assessed as reduction in Cyclin D1 protein expression at 5 to 50 nM incubated for 24 hrs by Western blot analysis. It counts as cell-based.
For data set [23], the species on record is Homo sapiens. As to the kind of experiment: Inhibition of L-type calcium channel diltiazem binding site (unknown origin) at 10 uM relative to control.
Data set [24] deals with MDA-MB-231. In words: Induction of cell cycle arrest in human MDA-MB-231 cells assessed as increase in G2/M population incubated for 24 hrs by LIVE/DEAD fixable dead cell staining based flow cyclometry. It counts as functional.
Data set [25] concerns MDA-MB-231. As to the kind of experiment: Induction of apoptosis in human MDA-MB-231 cells assessed as increase in apoptotic cells level incubated for 24 hrs by annexin V and propidium iodide staining based flow cyclometry. It counts as functional, cell-based.
In data set [26] the test system is MDA-MB-231. In words: Induction of apoptosis in human MDA-MB-231 cells assessed as increase in dead cells level incubated for 24 hrs by annexin V and propidium iodide staining based flow cyclometry. It counts as functional, cell-based.
In data set [27] the target is T1, Eukaryotic initiation factor 4A-I. As to the kind of experiment: Inhibition of eIF4A1 in human MDA-MB-231 cells assessed as reduction in cyclin D1 protein expression at 10 to 100 nM incubated for 24 hrs by Western blot analysis. It counts as cell-based.
The target is the same in data set [28]. As to the kind of experiment: Inhibition of eIF4A1 in human MDA-MB-231 cells assessed as reduction in BCL2 protein expression at 10 to 100 nM incubated for 24 hrs by Western blot analysis. It counts as cell-based.
A short description of data set [29]: Stability in rat liver microsomes assessed as parent compound remaining at 1 uM pre-incubated for 10 mins before NADPH addition and measured after 30 mins by LC/MS/MS analysis. It counts as ADME, Microsome. To be noted: read-out: Stability.
Data set [30] can be described thus: Stability in human liver microsomes assessed as parent compound remaining at 1 uM pre-incubated for 10 mins before NADPH addition and measured after 30 mins by LC/MS/MS analysis. It counts as ADME, Microsome. To be noted: read-out: Stability.
Data set [31] has as its target hERG (KCNH2) (Homo sapiens, UniProt Q12809). In words: Inhibition of human ERG at 10 uM by patch-clamp assay relative to control.

Activity calls are given as the source filed them. No cut-off for these calls is given here. Some results are limits rather than exact numbers.

hERG (KCNH2), sequence (Q12809 whole entry): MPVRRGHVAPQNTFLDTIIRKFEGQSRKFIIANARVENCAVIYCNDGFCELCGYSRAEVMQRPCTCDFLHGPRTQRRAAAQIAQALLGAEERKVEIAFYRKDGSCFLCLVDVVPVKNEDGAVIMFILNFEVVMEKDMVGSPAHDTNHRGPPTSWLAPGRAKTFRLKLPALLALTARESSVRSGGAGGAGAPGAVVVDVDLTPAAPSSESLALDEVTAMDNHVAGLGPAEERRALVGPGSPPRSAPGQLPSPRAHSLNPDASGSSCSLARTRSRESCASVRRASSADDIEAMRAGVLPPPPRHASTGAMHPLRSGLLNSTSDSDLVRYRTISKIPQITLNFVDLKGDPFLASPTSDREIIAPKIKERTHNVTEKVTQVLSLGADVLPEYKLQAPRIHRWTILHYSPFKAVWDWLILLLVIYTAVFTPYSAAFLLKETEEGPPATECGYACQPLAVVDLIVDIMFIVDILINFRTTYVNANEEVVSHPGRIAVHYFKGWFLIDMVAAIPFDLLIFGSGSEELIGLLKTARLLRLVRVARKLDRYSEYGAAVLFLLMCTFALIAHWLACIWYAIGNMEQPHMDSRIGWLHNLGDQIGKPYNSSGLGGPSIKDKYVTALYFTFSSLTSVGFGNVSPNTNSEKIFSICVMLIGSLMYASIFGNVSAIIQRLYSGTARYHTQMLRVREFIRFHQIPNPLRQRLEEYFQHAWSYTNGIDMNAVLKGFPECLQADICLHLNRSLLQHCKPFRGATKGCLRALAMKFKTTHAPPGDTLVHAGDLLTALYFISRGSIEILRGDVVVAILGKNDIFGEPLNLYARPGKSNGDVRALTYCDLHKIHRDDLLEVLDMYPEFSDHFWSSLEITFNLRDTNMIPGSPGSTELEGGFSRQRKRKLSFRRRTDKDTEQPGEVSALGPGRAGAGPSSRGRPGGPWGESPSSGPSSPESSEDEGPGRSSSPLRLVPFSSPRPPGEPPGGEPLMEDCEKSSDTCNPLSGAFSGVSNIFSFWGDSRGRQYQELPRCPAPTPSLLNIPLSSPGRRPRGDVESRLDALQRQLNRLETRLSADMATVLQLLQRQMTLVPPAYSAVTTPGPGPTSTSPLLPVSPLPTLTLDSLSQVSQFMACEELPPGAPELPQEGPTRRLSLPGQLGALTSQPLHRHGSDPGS
T1 sequence (P60842 whole entry): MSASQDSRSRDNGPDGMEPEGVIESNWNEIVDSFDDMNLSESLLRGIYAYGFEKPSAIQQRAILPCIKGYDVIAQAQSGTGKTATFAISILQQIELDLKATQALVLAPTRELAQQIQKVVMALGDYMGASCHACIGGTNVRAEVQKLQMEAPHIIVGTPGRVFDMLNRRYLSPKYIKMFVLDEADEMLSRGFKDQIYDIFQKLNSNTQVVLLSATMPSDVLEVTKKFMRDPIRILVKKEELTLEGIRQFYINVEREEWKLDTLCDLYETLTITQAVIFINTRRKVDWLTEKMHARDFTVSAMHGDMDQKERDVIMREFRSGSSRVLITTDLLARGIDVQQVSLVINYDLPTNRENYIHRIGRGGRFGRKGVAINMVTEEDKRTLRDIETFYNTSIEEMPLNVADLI
Voltage-gated inwardly rectifying potassium channel KCNH2, sequence (Q12809 whole entry): as the sequence (Q12809 whole entry) above

Take `COc1cncc2c1[C@]1(O)[C@H](O)[C@H](CN(C)C)[C@@H](c3ccccc3)[C@]1(c1ccc(C#N)cc1)O2.Cl`: in [1], the thermodynamic solubility is > 20 mg/mL.
The same measure, in the same setting: the value for `COc1cncc2c1[C@]1(O)[C@H](O)[C@H](C(=O)N(C)C)[C@@H](c3ccccc3)[C@]1(c1ccc(C#N)cc1)O2.Cl` was 0.22 mg/mL.
For `COc1cncc2c1[C@]1(O)[C@H](O)[C@H](CN(C)C)[C@@H](c3ccccc3)[C@]1(c1ccc(C#N)cc1)O2` (stereo in doubt; (-)-37), the IC50 in data set [2] was 54 nM; in data set [5], > 10000 nM. Besides, the Papp A→B at 10 µM in data set [3] (Caco-2, Papp) came to 0.21 ×10⁻⁶ cm/s. The efflux ratio at 10 µM in data set [4] (Caco-2, Ratio) was 22. The compound further showed a clearance in data set [6] of 39 mL/min/kg. In [7], the Vd worked out at 5.2 L/kg. Also, in [8], the half-life is 2.9 h. Also, the AUC in data set [9] was determined as 440 ng·h/mL.
As for `COc1cc2c(c(OC)n1)[C@]1(O)[C@H](O)[C@H](CN(C)C)[C@@H](c3ccccc3)[C@]1(c1ccc(C#N)cc1)O2.Cl`, the thermodynamic solubility in data set [1] is > 20 mg/mL.
As to `COc1cc2c(c(OC)n1)[C@]1(O)[C@H](O)[C@H](CN(C)C)[C@@H](c3ccccc3)[C@]1(c1ccc(C#N)cc1)O2`, the T1/2 in data set [10] came out at 1.32 min; in data set [11], 0.642 h. Further, in data set [12], the result was inactive. The inhibition result in data set [13], in [14], in data set [15], in data set [16], in data set [17] and in data set [18] was “Dose-dependent effect” each time. Further, the inhibition entry was “Dose-dependent effect” in [19] and 54% in data set [23]. Moreover, the inhibition result in data set [20], in data set [21] and in data set [22] was “inactive” throughout. Moreover, the Activity result in data set [24], in data set [25] and in [26] was “Dose-dependent effect” throughout. Besides, the inhibition result in [27] and in data set [28] was “Active” in each case.
Consider `C[C@H]1C[C@@]2(O[C@H]3C[C@H]4[C@@H]5CC[C@H]6C[C@H](O)CC[C@]6(C)[C@H]5[C@@H](O)C[C@]4(C)[C@H]3[C@@]2(C)O)OC1(C)C` [HIPPURISTANOL], for which the IC50 in [13] worked out at 426 nM; in [14], 369 nM; in [15] it was 210 nM; in data set [16], 204 nM.
Regarding `COc1cncc2c1[C@]1(O)[C@H](O)[C@H](CCN(C)C)[C@@H](c3ccccc3)[C@]1(c1ccc(C#N)cc1)O2` (racemic), the IC50 in data set [2] came to 143 nM. Besides, the Papp A→B at 10 µM in data set [3] (Caco-2) came to 0.1 ×10⁻⁶ cm/s. In [4] (Caco-2), the efflux ratio at 10 µM stood at 27. In addition, the remaining at 0.5 h, 1 µM was 77% in [29] and 75% in [30]. This compound also returned an inhibition at 10 µM in [31] of 11%.
For `C[C@@H]1C[C@@H]([C@H](O)CC2CC(=O)NC(=O)C2)C(=O)[C@@H](C)C1` [CYCLOHEXIMIDE], the IC50 was determined as 226 nM in [13], 101 nM in data set [14], 87 nM in data set [15] and 142 nM in data set [16].
`COc1cncc2c1[C@]1(O)[C@H](O)[C@H](CN(C)CC(F)F)[C@@H](c3ccccc3)[C@]1(c1ccc(C#N)cc1)O2`: the IC50 in data set [2] was 250 nM. The Papp A→B at 10 µM in data set [3] (Caco-2) was found to be 2.6 ×10⁻⁶ cm/s. Also, the efflux ratio at 10 µM in [4] (Caco-2) worked out at 3.2. Besides, the figures for the remaining at 0.5 h, 1 µM in data set [29] and in [30] were < 1% and 1%, respectively. In data set [31], this compound returned an inhibition at 10 µM of 11%.
`COc1nc(C#N)cc2c1[C@]1(O)[C@H](O)[C@H](CN(C)C)[C@@H](c3ccccc3)[C@]1(c1ccc(C#N)cc1)O2`: the IC50 in [2] worked out at 15 nM. The clearance in [6] turned out to be 26 mL/min/kg. The Vd in [7] was 10.3 L/kg. In data set [8], this compound had a half-life of 11 h. Also, in data set [9], the AUC was found to be 730 ng·h/mL.
In the case of `COc1cncc2c1[C@]1(O)[C@H](O)[C@H](CN(C)C(C)(C)C)[C@@H](c3ccccc3)[C@]1(c1ccc(C#N)cc1)O2`, the IC50 in data set [2] was 140 nM. The Papp A→B at 10 µM in data set [3] (Caco-2) is 0.1 ×10⁻⁶ cm/s. Moreover, the efflux ratio at 10 µM in data set [4] (Caco-2) is 57. The remaining at 0.5 h, 1 µM in data set [29] stood at 77%; in [30] it was 61%. This compound also registered an inhibition at 10 µM in data set [31] of 16%.
`COc1cncc2c1[C@]1(O)[C@H](O)[C@H](C(=O)N(C)C)[C@@H](c3ccccc3)[C@]1(c1ccc(C#N)cc1)O2`: in data set [2], the IC50 was found to be 33 nM. Also, the Papp A→B at 10 µM in data set [3] (Caco-2) came out at 0.65 ×10⁻⁶ cm/s. Further, in data set [4] (Caco-2), the efflux ratio at 10 µM was 5. The same compound displayed a clearance in data set [6] of 18 mL/min/kg. Moreover, the Vd in data set [7] stood at 1.1 L/kg. The compound further had a half-life in data set [8] of 2 h. This compound also came in with an AUC in data set [9] of 950 ng·h/mL.
As for `CCN(CC)C[C@H]1[C@@H](O)[C@@]2(O)c3c(OC)cncc3O[C@@]2(c2ccc(C#N)cc2)[C@@H]1c1ccccc1`, the IC50 in data set [2] was determined as 62 nM. Also, the Papp A→B at 10 µM in data set [3] (Caco-2) came to 0.3 ×10⁻⁶ cm/s. For the same compound, the efflux ratio at 10 µM in data set [4] (Caco-2) stood at 35. The remaining at 0.5 h, 1 µM amounted to 76% in [29] and 73% in data set [30]. This compound also yielded an inhibition at 10 µM in data set [31] of 40%.
